Results reported in ChEMBL document CHEMBL1145568, “Opioids and efflux transporters. Part 3: P-glycoprotein substrate activity of 3-hydroxyl addition to meperidine analogs” (Bioorg Med Chem Lett, 2008).
Where a name gives a salt, the structure may show the parent alone.

These compounds were tested against P-gp (ABCB1) ATPase (Homo sapiens, UniProt P08183) (assay: Stimulation of Pgp ATPase activity at 200 uM by Pgp-Glo assay system relative to control). Details: read-out: Fold change.
P-gp (ABCB1) ATPase, sequence (P08183 whole entry): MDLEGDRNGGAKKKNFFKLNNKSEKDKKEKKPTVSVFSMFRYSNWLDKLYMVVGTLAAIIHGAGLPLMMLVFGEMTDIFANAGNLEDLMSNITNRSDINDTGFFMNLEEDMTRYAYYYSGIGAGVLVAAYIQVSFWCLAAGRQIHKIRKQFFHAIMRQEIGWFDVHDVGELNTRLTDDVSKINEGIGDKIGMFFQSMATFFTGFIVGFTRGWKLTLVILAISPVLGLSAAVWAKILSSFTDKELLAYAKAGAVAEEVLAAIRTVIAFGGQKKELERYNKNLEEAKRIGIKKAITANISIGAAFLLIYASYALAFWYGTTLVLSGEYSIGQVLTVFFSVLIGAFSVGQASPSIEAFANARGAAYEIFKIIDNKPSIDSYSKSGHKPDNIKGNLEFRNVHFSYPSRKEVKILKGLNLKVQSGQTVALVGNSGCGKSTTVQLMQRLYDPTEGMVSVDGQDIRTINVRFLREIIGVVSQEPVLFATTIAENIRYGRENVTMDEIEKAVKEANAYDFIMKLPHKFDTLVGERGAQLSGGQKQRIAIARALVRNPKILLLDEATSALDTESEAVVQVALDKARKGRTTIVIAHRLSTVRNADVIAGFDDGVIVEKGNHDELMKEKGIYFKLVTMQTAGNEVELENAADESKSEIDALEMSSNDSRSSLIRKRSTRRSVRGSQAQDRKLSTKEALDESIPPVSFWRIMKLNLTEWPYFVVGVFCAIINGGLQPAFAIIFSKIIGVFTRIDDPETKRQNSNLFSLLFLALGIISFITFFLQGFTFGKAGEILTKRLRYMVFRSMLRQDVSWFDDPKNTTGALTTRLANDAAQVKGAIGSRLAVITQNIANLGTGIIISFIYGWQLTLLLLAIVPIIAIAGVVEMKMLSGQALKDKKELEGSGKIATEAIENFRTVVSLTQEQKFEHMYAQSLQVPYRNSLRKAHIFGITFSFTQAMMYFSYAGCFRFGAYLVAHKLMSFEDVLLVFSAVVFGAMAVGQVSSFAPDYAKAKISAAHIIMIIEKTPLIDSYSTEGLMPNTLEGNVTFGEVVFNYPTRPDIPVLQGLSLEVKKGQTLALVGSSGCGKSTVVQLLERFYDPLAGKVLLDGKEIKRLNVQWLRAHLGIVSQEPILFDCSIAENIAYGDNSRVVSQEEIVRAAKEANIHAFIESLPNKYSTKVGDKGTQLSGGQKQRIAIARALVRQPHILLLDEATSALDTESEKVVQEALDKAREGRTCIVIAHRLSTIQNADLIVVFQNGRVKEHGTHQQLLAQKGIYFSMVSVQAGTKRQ
With `CCOC(=O)C1(c2cccc(O)c2)CCN(C)CC1` [BEMIDONE] the fold induction at 200 µM was 2.64.
`CCOC(=O)C1(c2ccccc2)CCN(C)CC1` [PETHIDINE OXALATE] gave a fold induction at 200 µM of 1.78.
`CCC(=O)C1(c2ccccc2)CCN(C)CC1` was tested, and the fold induction at 200 µM was 1.37.
For `CCC(=O)C1(c2cccc(O)c2)CCN(C)CC1` [KETOBEMIDONE OXALATE], the fold induction at 200 µM was 4.89.
